Test results taken from ChEMBL document CHEMBL4251651, “Synthesis and biological evaluation of 4-amino-5-cinnamoylthiazoles as chalcone-like anticancer agents” (Eur J Med Chem, 2018).
≈ marks a conversion by molar mass, not a printed value.

Legend:
[1] = system: MCF7; assay: Antiproliferative activity against human MCF7 cells after 48 hrs by MTT assay; assay type: functional, cell-based; conditions: MCF7, 48 h
[2] = system: SW480; assay: Antiproliferative activity against human SW480 cells after 48 hrs by MTT assay; assay type: functional, cell-based; conditions: SW480, 48 h
[3] = system: HepG2; assay: Antiproliferative activity against human HepG2 cells after 48 hrs by MTT assay; assay type: functional, cell-based; conditions: HepG2, 48 h
[4] = system: HepG2; assay: Cell cycle arrest in human HepG2 cells assessed as accumulation at S phase at 1.2 times IC50 after 48 hrs by propidium iodide staining-based flow cytometry (reference value: 51.72%); assay type: functional
[5] = system: HepG2; assay: Induction of apoptosis in human HepG2 cells assessed as late apoptotic cells at 1.2 times IC50 after 48 hrs by Annexin V-FITC/propidium iodide staining based flow cytometry (reference value: 18.1%); assay type: functional
[6] = system: HepG2; assay: Cell cycle arrest in human HepG2 cells assessed as accumulation at G2 phase at 1.2 times IC50 after 48 hrs by propidium iodide staining-based flow cytometry (reference value: 38.82%); assay type: functional
[7] = system: HepG2; assay: Induction of apoptosis in human HepG2 cells assessed as necrotic cells at IC50 after 48 hrs by Annexin V-FITC/propidium iodide staining based flow cytometry (reference value: 7.77%); assay type: functional
[8] = system: HepG2; assay: Induction of apoptosis in human HepG2 cells assessed as early apoptotic cells at IC50 after 48 hrs by Annexin V-FITC/propidium iodide staining based flow cytometry (reference value: 11.7%); assay type: functional
[9] = system: HepG2; assay: Induction of apoptosis in human HepG2 cells assessed as viable cells at IC50 after 48 hrs by Annexin V-FITC/propidium iodide staining based flow cytometry (reference value: 62.4%); assay type: functional
[10] = system: HepG2; assay: Cell cycle arrest in human HepG2 cells assessed as accumulation at G1 phase at 1.2 times IC50 after 48 hrs by propidium iodide staining-based flow cytometry (reference value: 29.83%); assay type: functional
[11] = system: HepG2; assay: Induction of apoptosis in human HepG2 cells assessed as early apoptotic cells at 1.2 times IC50 after 48 hrs by Annexin V-FITC/propidium iodide staining based flow cytometry (reference value: 11.7%); assay type: functional
[12] = system: HepG2; assay: Cell cycle arrest in human HepG2 cells assessed as accumulation at G2 phase at IC50 after 48 hrs by propidium iodide staining-based flow cytometry (reference value: 38.82%); assay type: functional
[13] = system: HepG2; assay: Induction of apoptosis in human HepG2 cells assessed as necrotic cells at 1.2 times IC50 after 48 hrs by Annexin V-FITC/propidium iodide staining based flow cytometry (reference value: 7.77%); assay type: functional
[14] = system: HepG2; assay: Cell cycle arrest in human HepG2 cells assessed as accumulation at S phase at IC50 after 48 hrs by propidium iodide staining-based flow cytometry (reference value: 51.72%); assay type: functional
[15] = system: HepG2; assay: Induction of apoptosis in human HepG2 cells assessed as viable cells at 1.2 times IC50 after 48 hrs by Annexin V-FITC/propidium iodide staining based flow cytometry (reference value: 62.4%); assay type: functional
[16] = system: HepG2; assay: Induction of apoptosis in human HepG2 cells assessed as late apoptotic cells at IC50 after 48 hrs by Annexin V-FITC/propidium iodide staining based flow cytometry (reference value: 18.1%); assay type: functional
[17] = system: HepG2; assay: Cell cycle arrest in human HepG2 cells assessed as accumulation at G1 phase at IC50 after 48 hrs by propidium iodide staining-based flow cytometry (reference value: 29.83%); assay type: functional

Row | SMILES | IC50 [1] | IC50 [2] | IC50 [3] | further results
1 | Nc1nc(N2CCOCC2)sc1C(=O)/C=C/c1ccc([N+](=O)[O-])cc1 | 40 µg/mL (≈ 111 µM) | 43.3 µg/mL (≈ 120 µM) | 27.6 µg/mL (≈ 76.6 µM) | –
2 | Nc1nc(N2CCOCC2)sc1C(=O)/C=C/c1ccc(Cl)cc1Cl | 18.6 µg/mL (≈ 48.4 µM) | 33.2 µg/mL (≈ 86.4 µM) | 12.8 µg/mL (≈ 33.3 µM) | –
3 | Nc1nc(N2CCCC2)sc1C(=O)/C=C/c1ccc(Cl)cc1 | 24 µg/mL (≈ 71.9 µM) | 19.9 µg/mL (≈ 59.6 µM) | 27 µg/mL (≈ 80.9 µM) | –
4 | Nc1nc(N2CCCC2)sc1C(=O)/C=C/c1ccc(Br)cc1 | 41.3 µg/mL (≈ 109 µM) | 15.8 µg/mL (≈ 41.8 µM) | 30 µg/mL (≈ 79.3 µM) | –
5 | COc1ccccc1/C=C/C(=O)c1sc(N2CCCC2)nc1N | > 50 µg/mL | 17 µg/mL (≈ 51.6 µM) | 35.1 µg/mL (≈ 107 µM) | –
6 | Nc1nc(N2CCCCC2)sc1C(=O)/C=C/c1ccccc1 | 22.4 µg/mL (≈ 71.5 µM) | 28.1 µg/mL (≈ 89.7 µM) | 16.6 µg/mL (≈ 53 µM) | –
7 | Nc1nc(N2CCCCC2)sc1C(=O)/C=C/c1ccc(Cl)cc1 | 19.5 µg/mL (≈ 56.1 µM) | 29.4 µg/mL (≈ 84.5 µM) | 12 µg/mL (≈ 34.5 µM) | Activity [4]: 18.26%; Activity [5]: 34.7%; Activity [6]: 37.65%; Activity [7]: 18.5%; Activity [8]: 2.84%; Activity [9]: 44.3%; Activity [10]: 48.58%; Activity [11]: 3.31%; Activity [12]: 27.88%; Activity [13]: 17.2%; Activity [14]: 28.24%; Activity [15]: 44.8%; Activity [16]: 34.4%; Activity [17]: 44.47%
8 | Nc1nc(N2CCCC2)sc1C(=O)/C=C/c1ccccc1 | 21.7 µg/mL (≈ 72.5 µM) | 31.7 µg/mL (≈ 106 µM) | 29.6 µg/mL (≈ 98.9 µM) | –
9 | COc1cc([C@@H]2c3cc4c(cc3[C@@H](O[C@@H]3O[C@@H]5CO[C@@H](C)O[C@H]5[C@H](O)[C@H]3O)[C@H]3COC(=O)[C@H]23)OCO4)cc(OC)c1O [ETOPOSIDE] | – | – | – | Activity [7]: 35.5%; Activity [8]: 2.59%; Activity [9]: 37.1%; Activity [16]: 24.7%

The next lines start with results.

Row | IC50 [1] | IC50 [2] | IC50 [3] | SMILES | further results
10 | 14.6 µg/mL (≈ 40.7 µM) | 25.6 µg/mL (≈ 71.4 µM) | 15.4 µg/mL (≈ 43 µM) | Nc1nc(N2CCCCC2)sc1C(=O)/C=C/c1ccc([N+](=O)[O-])cc1 | Activity [4]: 33.47%; Activity [5]: 47.1%; Activity [6]: 25.23%; Activity [7]: 24.2%; Activity [8]: 2.1%; Activity [9]: 46%; Activity [10]: 54.18%; Activity [11]: 2.53%; Activity [12]: 30.17%; Activity [13]: 24.2%; Activity [14]: 27.92%; Activity [15]: 26.1%; Activity [16]: 27.7%; Activity [17]: 47.1%
11 | > 50 µg/mL | 33.4 µg/mL (≈ 95.5 µM) | 35.8 µg/mL (≈ 102 µM) | Nc1nc(N2CCOCC2)sc1C(=O)/C=C/c1ccc(Cl)cc1 | –
12 | 26.3 µg/mL (≈ 76.4 µM) | 22.4 µg/mL (≈ 65 µM) | 23.5 µg/mL (≈ 68.2 µM) | Nc1nc(N2CCCC2)sc1C(=O)/C=C/c1ccc([N+](=O)[O-])cc1 | –
13 | 25.6 µg/mL (≈ 65.3 µM) | 31.6 µg/mL (≈ 80.5 µM) | 17.4 µg/mL (≈ 44.4 µM) | Nc1nc(N2CCCCC2)sc1C(=O)/C=C/c1ccc(Br)cc1 | –
14 | 25.5 µg/mL (≈ 66.7 µM) | 36.8 µg/mL (≈ 96.3 µM) | 22.9 µg/mL (≈ 59.9 µM) | Nc1nc(N2CCCCC2)sc1C(=O)/C=C/c1ccc(Cl)cc1Cl | –
15 | 34.7 µg/mL (≈ 110 µM) | 30.5 µg/mL (≈ 96.7 µM) | 21.4 µg/mL (≈ 67.9 µM) | Nc1nc(N2CCOCC2)sc1C(=O)/C=C/c1ccccc1 | –
16 | > 50 µg/mL | 32.7 µg/mL (≈ 82.9 µM) | > 50 µg/mL | Nc1nc(N2CCOCC2)sc1C(=O)/C=C/c1ccc(Br)cc1 | –
17 | 12.6 µg/mL (≈ 34.2 µM) | 18.4 µg/mL (≈ 50 µM) | 10.6 µg/mL (≈ 28.8 µM) | Nc1nc(N2CCCC2)sc1C(=O)/C=C/c1ccc(Cl)cc1Cl | Activity [4]: 16.34%; Activity [5]: 44.3%; Activity [6]: 68.37%; Activity [7]: 40.8%; Activity [8]: 1.43%; Activity [9]: 44.6%; Activity [10]: 27.04%; Activity [11]: 7.12%; Activity [12]: 64.84%; Activity [13]: 24.4%; Activity [14]: 14.64%; Activity [15]: 24.2%; Activity [16]: 13.2%; Activity [17]: 22.09%
